Consider 15 compounds from US20080221086A1, “Novel Inhibitors of Glutaminyl Cyclase” (PROBIODRUG AG, priority 2006, published 2008).

The experiment concerns the target hQC (Homo sapiens, UniProt Q16769). Description: Fluorometric assay of glutaminyl cyclase (QC) inhibition, H-Gln-βNA or H-Gln-AMC substrate. The following applies: read-out: IC50. It is filed as biochemical. Put shortly: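 Fluorometric coupled assays at 30° C in Tris/HCl pH 8.0 with EDTA and pyroglutamyl aminopeptidase used either 0.2 mM H-Gln-βNA (320/410 nm) or H-Gln-AMC (380/460 nm), started by QC. Screening used 4 mM inhibitor at substrate 1 KM. Ki came from fitting progress curves to competitive inhibition.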

hQC, sequence (Q16769 29-361): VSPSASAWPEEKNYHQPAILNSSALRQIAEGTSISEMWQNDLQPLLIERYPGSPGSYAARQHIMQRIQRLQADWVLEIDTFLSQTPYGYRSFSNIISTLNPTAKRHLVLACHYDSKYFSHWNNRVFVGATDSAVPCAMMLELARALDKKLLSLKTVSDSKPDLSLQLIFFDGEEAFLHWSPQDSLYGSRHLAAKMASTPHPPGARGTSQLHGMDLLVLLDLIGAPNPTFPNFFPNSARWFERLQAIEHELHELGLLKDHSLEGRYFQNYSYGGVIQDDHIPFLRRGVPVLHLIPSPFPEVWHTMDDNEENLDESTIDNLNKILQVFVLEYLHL

`CCCCC1/C(=N/Cc2ccc(Cl)cc2)NC(=O)N1CCCn1ccnc1` (stereo not drawn) [Compound 22, 5-Butyl-4-4-chloro-benzylimino-1-(3-imidazol-1-yl-propyl)-imidazolidin-2-one]: the IC50 was 8.5 µM.

As to `O=C1N/C(=N/Cn2nnc3ccccc32)C(c2ccc(Cl)cc2)N1c1ccc2[nH]cnc2c1` (stereo not drawn) [Compound 128, 1-(1H-Benzoimidazol-5-yl)-4-benzotriazol-1-ylmethylimino-5-(4-chloro-phenyl)-imidazolidin-2-one], the IC50 was 3.1 µM.

For the compound `C/N=C1/NC(=O)N(c2ccc3[nH]cnc3c2)C1c1ccc(N2CCCC2)cc1` (stereo not drawn) [Compound 269, 1-(1H-Benzoimidazol-5-yl)-4-methylimino-5-(4-pyrrolidin-1-yl-phenyl)-imidazolidin-2-one], the IC50 was 3.1 µM.

As to `CC1=CC(C)C(C2/C(=N/C3CCc4ccccc43)NC(=O)N2c2ccc3[nH]cnc3c2)CC1` (stereo not drawn) [Compound 193, 1-(1H-Benzoimidazol-5-yl)-5-(2,4-dimethyl-cyclohex-3-enyl)-4-indan-1-ylimino-imidazolidin-2-one], the half-maximal inhibitory concentration (IC50) is 4.9 µM.

On to `CN(C)c1ccc(C2/C(=N\Cn3nnc4ccccc43)NC(=S)N2c2ccc3[nH]cnc3c2)cc1` (stereo not drawn) [Compound 280, 1-(1H-Benzoimidazol-5-yl)-4-benzotriazol-1-ylmethylimino-5-(4-dimethylamino-phenyl)-imidazolidine-2-thione], for which the IC50 came to 1.3 µM.

As for `C/N=C1/NC(=O)N(CCCn2ccnc2)C1C1CCC=CO1` (stereo not drawn) [Compound 15, 5-(3,4-Dihydro-2H-pyran-2-yl)-1-(3-imidazol-1-yl-propyl)-4-methylimino-imidazolidin-2-one], the half-maximal inhibitory concentration (IC50) is 7.6 µM.

Consider `O=C1N/C(=N\Cn2nnc3ccccc32)C(c2ccccc2F)N1c1ccc2[nH]cnc2c1` (stereo not drawn) [Compound 337, 1-(1H-Benzoimidazol-5-yl)-4-benzotriazol-1-ylmethylimino-5-(2-fluoro-phenyl)-imidazolidin-2-one], for which the half-maximal inhibitory concentration (IC50) amounted to 1.3 µM.

Turning to `O=C1N/C(=N\C(c2ccccc2)c2ccccc2)C(c2ccccc2F)N1CCCn1ccnc1` (stereo not drawn) [Compound 87, 4-Benzhydrylimino-5-(2-fluoro-phenyl)-1-(3-imidazol-1-yl-propyl)-imidazolidin-2-one], the IC50 amounted to 4 µM.

For the compound `O=C1N/C(=N\C2CCCCC2)C(c2cc(Br)cs2)N1c1ccc2[nH]cnc2c1` (stereo not drawn) [Compound 184], the IC50 came to 1.3 µM.

On to `CCc1ccccc1C1/C(=N/C2CCCc3ccccc32)NC(=O)N1c1ccc2[nH]cnc2c1` (stereo not drawn) [Compound 160, 1-(1H-Benzoimidazol-5-yl)-5-(2-ethyl-phenyl)-4-1,2,3,4-tetrahydro-naphthalen-1-ylimino-imidazolidin-2-one], for which the IC50 turned out to be 2.2 µM.

Consider `O=C1N/C(=N\c2ccc3c(c2)OCCO3)C(c2ccc(Cl)c(F)c2)N1CCCn1ccnc1` (stereo not drawn) [Compound 33, 5-(4-Chloro-3-fluoro-phenyl)-4-2,3-dihydro-benzo1,4dioxin-6-ylimino-1-(3-imidazol-1-yl-propyl)-imidazolidin-2-one], for which the IC50 stood at 4.9 µM.

Consider `C/N=C1/NC(=O)N(c2ccc3[nH]cnc3c2)C1c1ccc2c(c1)OCO2` (stereo not drawn) [Compound 195, 5-Benzo1,3dioxol-5-yl-1-(1H-benzoimidazol-5-yl)-4-methylimino-imidazolidin-2-one], for which the IC50 is 1.3 µM.

Turning to `CCc1ccccc1/N=C1\NC(=O)N(c2ccc3[nH]cnc3c2)C1c1ccccc1` (stereo not drawn) [Compound 245, 1-(1H-Benzoimidazol-5-yl)-4-2-ethyl-phenylimino-5-phenyl-imidazolidin-2-one], the IC50 came to 7.6 µM.

Take `O=C1N/C(=N\C2CCCCCC2)C(C2CCOC2)N1c1ccc2[nH]cnc2c1` (stereo not drawn) [Compound 205, 1-(1H-Benzoimidazol-5-yl)-4-cycloheptylimino-5-(tetrahydro-furan-3-yl)-imidazolidin-2-one]: the IC50 was 9.4 µM.

For `O=C(C/N=C1/NC(=O)N(c2ccc3[nH]cnc3c2)C1c1cc(Br)cs1)N1CCCCC1` (stereo not drawn) [Compound 119, 1-(1H-Benzoimidazol-5-yl)-5-(4-bromo-thiophen-2-yl)-4-2-oxo-2-piperidin-1-yl-ethylimino-imidazolidin-2-one], the IC50 stood at 6.7 µM.

In general, IC50 refers to the point on the concentration scale where inhibition reaches its midpoint.
